From patent publication US20150191446A1, “SELENO-COMPOUNDS AND THERAPEUTIC USES THEREOF” (THE HEART RESEARCH INSTITUTE LTD, priority 2010, published 2015) come the findings set out here.

A short description of data set [1]: ThioGlo assay, recycling of selenoxides by thiols: glutathione. The following applies: GSH samples. On the procedure:
(§1) The purpose of these experiments was to determine whether thiols could reduce the selenoxides formed on oxidation of the seleno compounds. The ThioGlo assay was used to monitor the loss of thiol groups upon addition of selenoxides as this agent produces a fluorescent product in the presence of reduced thiols.
(§2) The ThioGlo reagent was prepared by diluting 30 μL of a stock solution (5 mg in 5.070 mL acetonitrile) in 2970 μL of 0.1 M pH 7.4 phosphate buffer. Preparation of the developing reagent was performed immediately prior to addition to standards or samples. Standard curves were prepared by addition of varying volumes, between 0 and 50 μL, of 10 μM GSH solution to wells in a 96-well plate. The volume in each well was made up to 50 μL with 0.1 M pH 7.4 phosphate buffer. 50 μL of ThioGlo•reagent was added to each standard, and incubated in the dark for 5 minutes. The fluorescence was measured using a PerSeptive Biosystems CytoFluor II fluorescence multi-well plate reader with λex=360 nm λem=530 nm. Standards using 10 μM Cys and 2 mg/mL BSA were produced in the same method.
(§3) Solutions of 8 μM SeMetO were produced by mixing 20 μM SeMet and 16 μM HOCl together, and incubating for 30 minutes. […] The fluorescence was measured using the PerSeptive Biosystems CytoFluor II fluorescence multi-well plate reader with λex=360 nm λem=530 nm. […]

Data set [2] in a line: ThioGlo assay, recycling of selenoxides by thiols: cysteine. To be noted: Cys samples. On the procedure: as §1, §2, §3
The next data set deals with bovine serum albumin (Bos taurus, UniProt P02769). As to the kind of experiment: ThioGlo assay, recycling of selenoxides by thiols: bovine serum albumin. To be noted: thiol group on bovine serum albumin. As for the experimental part:
as §1, §2, §3

Data set [3] relates to wounds in wildtype C57/BL6 mice. Nature of the data set: Circular incision wound model, topical treatment, wildtype mice. The data set is classed as in vivo, mouse. To be noted: for wound healing (appearance) / pus formation in wound: topical; for wound healing (appearance): FIG. 25, 26. As for the experimental part: In the experimental testing according to the present invention, pairs of circular incision wounds on the backs of wildtype C57/BL6 and db−/db− mice (n=12 each) were treated daily with a seleno-compound according to the current invention or vehicle, topically for 10 days. Wound closure, vascular perfusion and tissue histology were assessed.

In the next data set the test system is BSA. As to the kind of experiment: 3-chlorotyrosine formation by HOCl in BSA (LCMS). The data set is classed as biochemical, bovine. To be noted: FIG. 5A. As for the experimental part:
(§4) Varying concentrations of Se-sugars (1.0 mM-0.05 mM) were added to solutions containing 0.1 mg·mL^−1 of protein (BSA or Plasma).
(§5) 150 μL of each sample (Se1HSA1—Control) were added to 50 μL of 3 mM HOCl. Samples, with a final volume of 200 μL, were placed in a glass vial (8×40 mm, 1 mL, No. 98212, Alltech) labeled by etching with a diamond tipped pen or engraver. Proteins (0.1 mg in 200 μL) were delipidated and precipitated by the addition of 25 μL 0.3% (w/v) deoxycholic acid and 50 μL of 50% (w/v) TCA, with incubation on ice for 5 min. The glass vials containing samples were placed in 1.5 mL centrifuge tubes for 2 minutes at 9000 rpm at 5° C. (Eppendorf 5415R centrifuge) to pellet protein. Protein pellets were washed once with 5% (w/v) TCA, and twice with ice cold acetone (stored in […]) with 2 min, 9000 rpm, spins between washes in each case to settle pellets. The samples were then transferred to PicoTag hydrolysis vessels before the addition of 150 μL of 6 M HCl and 50 μL of thioglycolic acid into the PicoTag vessel and placed under vacuum in the oven at 110° C. for 16-18 hours. The PicoTag vessels were removed from oven and allowed to cool before releasing vacuum. […]
(§6) L-Tyrosine, 3-chlorotyrosine and di-tyrosine were analysed by LC-MS in the positive ion mode with a Finigan LCQ Deca XP ion-trap instrument coupled to a Finigan surveyor HPLC system. […]

The next data set relates to human plasma. As to the kind of experiment: 3-chlorotyrosine formation by HOCl in human plasma (LCMS). Format: biochemical. The following applies: FIG. 5B. On the procedure: as §4, §5, §6

bovine serum albumin, sequence (P02769 25-607): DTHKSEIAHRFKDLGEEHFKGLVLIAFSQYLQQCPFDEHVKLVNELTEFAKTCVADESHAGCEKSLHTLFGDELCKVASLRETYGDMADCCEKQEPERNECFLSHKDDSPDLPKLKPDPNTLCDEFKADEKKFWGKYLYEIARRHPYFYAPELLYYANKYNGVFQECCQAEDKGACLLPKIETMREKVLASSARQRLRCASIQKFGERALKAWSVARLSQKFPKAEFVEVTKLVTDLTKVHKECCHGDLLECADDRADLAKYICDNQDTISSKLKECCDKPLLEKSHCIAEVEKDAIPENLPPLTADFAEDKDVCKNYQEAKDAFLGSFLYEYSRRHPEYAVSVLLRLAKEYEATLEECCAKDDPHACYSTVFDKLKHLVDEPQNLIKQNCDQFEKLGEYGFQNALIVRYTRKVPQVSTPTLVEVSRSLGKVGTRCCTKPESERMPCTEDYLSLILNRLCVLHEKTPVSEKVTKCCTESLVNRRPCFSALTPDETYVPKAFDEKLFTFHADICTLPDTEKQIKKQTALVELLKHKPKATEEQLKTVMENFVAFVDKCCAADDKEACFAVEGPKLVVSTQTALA

For `O=[Se]1C[C@@H](O)[C@@H](O)[C@@H]1[C@H](O)CO` (stereo partly drawn) [SeTalO], the “amount of thiols after selenoxide addition” value in data set [1] and in data set [2] was “dose dependent decreases” each time. The “reduction of selenoxide by thiol group” value at bovine serum albumin is listed as “less marked”.

`OC[C@@H](O)[C@@H]1[Se]C[C@@H](O)[C@H]1O` [compound 38, 1,4.-Anhydro-4-seleno-D-talitol]: the “wound healing (appearance)” value in data set [3] (same dose) is “improved wound closure and healing”.

For the compound `O[C@@H]1C[Se]C[C@H]1O` (racemic) [DHSred, DL-trans-3,4,-Dihydroxy-L-selenolane], in data set [3] (FIG. 25), the “inflammatory response during wound healing” value is on record as “resulted in an inflammatory response”. Also, the “pus formation in wound” value was “development of pus” in data set [3] (same dose, FIG. 25) and “observable pus formation” in data set [3] (same dose, FIG. 25, listed as DL-trans-3,4,-Dihydroxy-L-selenolane). The “wound healing (appearance)” value is “inferior healing” in data set [3] (same dose) and “reduced wound healing” in data set [3] (same dose, listed as DL-trans-3,4,-Dihydroxy-L-selenolane). Besides, the “scar tissue formed during wound healing” value in data set [3] (wildtype mice, same dose, FIG. 26) is on record as “pronounced scar tissue build up”.

In the case of `C[Se](=O)CC[C@H](N)C(=O)O` (stereo partly drawn) [SeMetO, selenomethionine oxide], the “amount of thiols after selenoxide addition” value in data set [1] and in data set [2] was “dose dependent decreases” throughout. Further, the “reduction of selenoxide by thiol group” value at bovine serum albumin is reported as “less marked”.

`OCC1[Se]CC(O)C(O)[C@@H]1O` (stereo partly drawn) [compound 4, 1,5-Anhydro-5-seleno-L-gulitol]: the “3-chloro-tyrosine formation by HOCl” value in the data set with BSA and with human plasma was “effectively preventing” each time.
